Laboratory results: patent US9969741B2, “Pyrazolotriazines as inhibitors of nucleases” (MASARYKOVA UNIVERZITA, priority 2014, dated 2018)

The compounds below were run against T1, MUS81/EME1 (Homo sapiens, UniProt Q96NY9) (assay: Nuclease inhibition assay, MUS81/EME1 (3′ flap fluorescent DNA substrate, gel readout)). Conditions: 5 nM enzyme, 5 nM 3′ flap substrate, 15 min at 30° C.
T1 sequence (Q96NY9 1-551): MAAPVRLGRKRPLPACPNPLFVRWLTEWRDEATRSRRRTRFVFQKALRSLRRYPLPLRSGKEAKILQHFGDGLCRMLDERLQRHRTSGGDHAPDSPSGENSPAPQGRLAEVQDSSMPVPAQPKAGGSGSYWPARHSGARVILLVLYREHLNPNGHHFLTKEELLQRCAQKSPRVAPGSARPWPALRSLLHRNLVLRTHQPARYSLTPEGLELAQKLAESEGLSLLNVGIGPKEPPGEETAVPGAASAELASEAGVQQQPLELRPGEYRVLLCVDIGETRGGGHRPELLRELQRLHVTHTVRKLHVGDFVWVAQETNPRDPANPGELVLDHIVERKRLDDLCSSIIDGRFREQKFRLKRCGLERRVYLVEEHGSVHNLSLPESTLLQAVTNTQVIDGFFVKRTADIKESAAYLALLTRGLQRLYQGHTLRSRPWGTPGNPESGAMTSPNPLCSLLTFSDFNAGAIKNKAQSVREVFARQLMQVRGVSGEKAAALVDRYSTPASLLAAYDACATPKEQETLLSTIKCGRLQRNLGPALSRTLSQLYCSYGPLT
T1 sequence (Q96AY2 1-570 partner): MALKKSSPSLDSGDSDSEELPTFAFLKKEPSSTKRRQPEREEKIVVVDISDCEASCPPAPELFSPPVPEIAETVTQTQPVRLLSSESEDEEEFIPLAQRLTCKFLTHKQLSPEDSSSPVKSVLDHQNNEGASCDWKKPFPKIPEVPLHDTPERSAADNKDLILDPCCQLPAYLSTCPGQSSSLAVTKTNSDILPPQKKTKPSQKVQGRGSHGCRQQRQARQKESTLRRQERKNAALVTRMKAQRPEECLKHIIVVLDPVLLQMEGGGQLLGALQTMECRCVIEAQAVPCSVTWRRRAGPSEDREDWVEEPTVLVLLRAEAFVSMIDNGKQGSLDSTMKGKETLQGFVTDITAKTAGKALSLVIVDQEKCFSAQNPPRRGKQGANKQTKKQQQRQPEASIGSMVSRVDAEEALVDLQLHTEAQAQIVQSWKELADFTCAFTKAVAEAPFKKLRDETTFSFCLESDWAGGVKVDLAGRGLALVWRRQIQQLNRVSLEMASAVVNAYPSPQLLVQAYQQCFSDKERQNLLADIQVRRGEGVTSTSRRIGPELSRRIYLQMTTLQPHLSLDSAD
Type: biochemical
Text: In vitro assays were used for the determination of compound's IC50 values for inhibition of individual nucleases, i.e., MUS81/EME1, FEN1, EXO1, and MRE11. To generate IC50 values, concentration of compound was plotted against relative nuclease activity (in %). The dose-response curves were generated from inhibition data, from 5 point serial dilutions of inhibitory compounds, each in triplicate and fitted to a standard sigmoid curve. IC50 values were derived by standard nonlinear regression analysis.
All tested compounds were diluted in 100% DMSO (dimethylsulfoxide) to prepare working stocks with different concentrations. To keep the DMSO concentration constant in every reaction, always 0.5 μl of the compound stock was added to the reaction buffer. The reaction buffer differs depending on the enzyme tested. Also concentration of the compounds in the reaction depends on the particular enzyme, since the inhibitory effect of the compounds vary between the enzymes. Nevertheless, always doubling dilutions in the range 200-0.8 μM was used. The compound was added as the first component in the reaction buffer, followed by the enzyme addition. Short (15 minutes) pre-incubation step followed before the reaction was initiated by addition of DNA substrate (5 nM).
As a negative control, DNA substrate specific for each particular enzyme without the addition of the enzyme and the compound was used. The positive control contained all components of the reaction, except the compound of interest. However, to compensate for solvent effects, DMSO (at a final concentration of 2.5%) was included in the reaction.
For this experiment we prepared short fluorescently labeled oligonucleotide-based DNA substrates with specific structures reflecting the biochemical activities of tested individual nucleases (Table 1). These substrates were prepared by annealing of synthetic oligonucleotides purchased from VBC Biotech. Composition of each substrate is indicated below the table; the corresponding oligonucleotides were combined in equimolar ratios. For visualization, each substrate was labeled by fluorescent dye (fluorescein), which can be detected in the gel using appropriate imaging system (FLA-9000, Fuji) with filters for particular wavelengths (excitation: 485 nm, emission: 535 nm).
Nuclease assays were performed in reaction buffer specific for particular enzyme: MUS81/EME1 (50 mM Tris pH=7.5, 5 mM MgCl2, 1 mM DTT a 100 μg/ml BSA), MRE11 (30 mM Bis-Tris pH=7.0, 50 μg/ml BSA, 1 mM DTT a 250 μM MnCl2), EXO1 and FEN1 (50 mM Tris pH=7.5, 1 mM MgCl2, 1 mM DTT a 100 μg/ml BSA). The individual reactions were prepared by mixing with highly purified enzyme (MUS81/EME1 (5 nM), MRE11 (5 nM), EXO1 (5 nM) or FEN1 (10 nM); purification protocols described below), and different concentration of inhibitor (mentioned above) in corresponding reaction buffer. The final volume of the reaction was 20 μl. After short pre-incubation (15 minutes at room temperature), the reaction was initiated by addition of 5 nM of corresponding fluorescently labeled DNA substrate (3′ flap for MUS81/EME1, 5′ flap for MRE11 and FEN1, 3′ OH for EXO1; see FIG. 1) and incubated for 15 minutes at 30° C. Next, the reaction was stopped and deproteinized by addition of 2 μl of stop buffer, containing 0.1% SDS and 500 μg/ml proteinase K, and incubated for additional 5 minutes at 30° C. Then the loading dye, containing glycerol (60% glycerol, 10 mM Tris pH=7.4, 60 mM EDTA a 0.1% Orange G), was added to each reaction ( 1/10 of the reaction volume), and the whole mixture was subjected to electrophoresis in 10% polyacrylamide native gel (110 V, 40 min, 1× TBE). Fluorescently labeled DNA was detected by FLA-9000 scanner (Fuji) and the result was evaluated using Multi-Gauge V3.2 software (Fuji).
The Mus81/Eme1 expression construct was a kind gift from Dr. Steve West (Cancer Research UK). Briefly, the nuclease complex was purified as follows. […]

| Structure (SMILES) | IC50 [µM] |
| --- | --- |
| CCc1nn2c(N)c(-c3nc4ccccc4[nH]3)nnc2c1-c1ccc(F)cc1 [Preparative Example 5A] | < 10 |
| Nc1c(-c2nc3ccccc3[nH]2)nnc2cc(-c3ccccc3)nn12 [Preparative Example 5C] | < 50 |
| Nc1c(-c2nc3ccccc3[nH]2)nnc2cc(-c3cccc4ccccc34)nn12 [Preparative Example 5K] | < 10 |
